Reference: patent US11214803B2, “Modulators of YAP1 expression” (Ionis Pharmaceuticals, Inc., priority 2019, dated 2022)
Strand notation (5' to 3'): a small letter for the sugar, then the base; units joined by * are phosphorothioate-linked, units joined directly phosphodiester-linked; [ ] holds rarer units or linkages, { } end groups; capitals alone tell only the bases. k = constrained ethyl (cEt); [5mC] = 5-methylcytosine; d = 2'-deoxy (DNA)

Test system: Yap1 mRNA
Assay: Antisense inhibition of human Yap1 in A-431 cells by cEt gapmers, single dose (Example 2, RTS4814)
Assay type: cell-based
How it was run: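 Each 16-nucleoside gapmer (ten-deoxy gap, three-cEt wings) is tested once at 2,000 nM in A-431 cells by free uptake. Yap1 mRNA after about 48 hours is measured by quantitative RT-PCR and expressed relative to untreated control.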

[1] = Table 20, Yap1 mRNA, percent of untreated control, 3-10-3 cEt gapmers targeting SEQ ID NO.: 1 and 2
[2] = Table 33, Yap1 mRNA, percent of untreated control, 3-10-3 cEt gapmers targeting SEQ ID NO.: 1, and 2
[3] = Table 23, Yap1 mRNA as percent of untreated control, 3-10-3 cEt gapmers, single dose
[4] = Table 25, Yap1 mRNA as percent of untreated control, 3-10-3 cEt gapmers targeting SEQ ID NO.: 1, and 2
[5] = Table 18, A-431 cells, 5,000 cells per well, free uptake, 2,000 nM modified oligonucleotide, approx. 48 hours, RTS4814, normalized to RIBOGREEN, Yap1 mRNA as percent of untreated control
[6] = Table 22, Yap1 mRNA as percent of untreated control, 3-10-3 cEt gapmers, single dose
[7] = Table 5, A-431 cells, 5,000 cells per well, free uptake, 2,000 nM modified oligonucleotide, approx. 48 hours, RTS4814, normalized to RIBOGREEN, Yap1 mRNA relative to untreated control cells
[8] = Yap1 mRNA as percent of untreated control, A-431 cells, 3-10-3 cEt gapmers targeting SEQ ID NO.: 1, and 2, Table 31
[9] = Table 6, A-431 cells, 5,000 cells per well, free uptake, 2,000 nM modified oligonucleotide, approx. 48 hours, RTS4814, normalized to RIBOGREEN, Yap1 mRNA relative to untreated control cells
[10] = Yap1 mRNA as percent of untreated control, A-431 cells, 3-10-3 cEt gapmers targeting SEQ ID NO.: 1, and 2, Table 30
[11] = Table 21, Yap1 mRNA, percent of untreated control, 3-10-3 cEt gapmers targeting SEQ ID NO.: 1 and 2
[12] = Table 32, Yap1 mRNA, percent of untreated control, 3-10-3 cEt gapmers targeting SEQ ID NO.: 1, and 2

**Q.** “1075206 (antisense kT*kA*kT*dT*dA*dA*dA*dT*dG*dA*dG*d[5mC]*dA*k[5mC]*k[5mC]*kA) [Compound 1075206]” was tested. Which “YAP1 (% UTC)” value [1] did it give?
**A.** 36 % UTC

**Q.** For “1076275 (kG*kT*kA*dT*dT*dA*dG*dA*dT*dA*dA*dA*dG*k[5mC]*kA*kG; antisense) [compound 1076275]”, which “YAP1 (% UTC)” value [2] is on record?
**A.** 10 % UTC

**Q.** With “1075945 (kG*kT*kA*dT*dT*dA*dG*dG*dA*dA*d[5mC]*dA*dG*kA*kT*k[5mC]; antisense) [Compound 1075945]” as the substance, how does the “YAP1 (% UTC)” value [3] read?
**A.** 11 % UTC

**Q.** How did the “YAP1 (% UTC)” value [4] turn out when “1074731 (antisense k[5mC]*kA*kG*dG*dT*dA*dT*d[5mC]*dA*d[5mC]*dA*dG*dT*kA*k[5mC]*kT) [Compound 1074731]” was run?
**A.** 19 % UTC

**Q.** “1075817 (k[5mC]*k[5mC]*kT*dA*dA*dA*dG*dA*dA*dG*dT*d[5mC]*dT*kT*kG*kG; antisense) [Compound 1075817]” was tested. Which “YAP1 (% UTC)” value [3] did it give?
**A.** 100 % UTC

**Q.** With “1075492 (antisense kG*k[5mC]*kT*dA*dA*dA*dA*dT*dG*dA*dT*dA*d[5mC]*kT*kT*k[5mC]) [Compound 1075492]” as the substance, how does the “YAP1 (% UTC)” value [5] read?
**A.** 29 % UTC

**Q.** Which “YAP1 (% UTC)” value [6] does the source give for “1074280 (antisense kG*kG*kT*d[5mC]*dA*dA*dG*d[5mC]*d[5mC]*dT*dT*dG*dG*kG*kT*k[5mC]) [Compound 1074280]” here?
**A.** 43 % UTC

**Q.** Which “YAP1 (% UTC)” value [6] does the source give for “1075144 (antisense kA*k[5mC]*k[5mC]*d[5mC]*dT*dA*dT*dA*dT*d[5mC]*d[5mC]*dT*dA*kT*kA*kT) [Compound 1075144]” here?
**A.** 82 % UTC

**Q.** With “1074632 (antisense kT*k[5mC]*kA*dT*dA*dG*d[5mC]*dA*dG*d[5mC]*dT*dT*dT*kT*kG*k[5mC]) [Compound 1074632]” as the substance, how does the “YAP1 (% UTC)” value [6] read?
**A.** 12 % UTC

**Q.** Which “YAP1 (% UTC)” value [7] does the source give for “716440 (k[5mC]*kT*k[5mC]*dT*dT*d[5mC]*dA*dA*dA*dT*d[5mC]*dA*dG*k[5mC]*kA*kT; antisense) [Compound 716440]” here?
**A.** 45 % UTC

**Q.** With “1076523 (antisense kA*kT*kT*dT*dA*dT*dA*dT*d[5mC]*dA*dG*dG*dT*k[5mC]*kA*kA) [Compound 1076523]” as the substance, how does the “YAP1 (% UTC)” value [4] read?
**A.** 5 % UTC

**Q.** How did the “YAP1 (% UTC)” value [8] turn out when “1075633 (antisense k[5mC]*kT*kA*dT*dA*dT*dT*dG*dG*d[5mC]*dT*d[5mC]*d[5mC]*kT*kA*kG) [compound 1075633]” was run?
**A.** 82 % UTC

**Q.** With “1075749 (kA*kA*kT*dT*dA*dT*dG*dA*dA*dT*dG*dA*dT*kG*kG*kG; antisense) [Compound 1075749]” as the substance, how does the “YAP1 (% UTC)” value (Table 19, A-431 cells, 5,000 cells per well, free uptake, 2,000 nM modified oligonucleotide, approx. 48 hours, RTS4814, normalized to RIBOGREEN, Yap1 mRNA as percent of untreated control) read?
**A.** 4 % UTC

**Q.** With “1074282 (antisense k[5mC]*kG*kA*dG*dG*dG*dT*d[5mC]*dA*dA*dG*d[5mC]*d[5mC]*kT*kT*kG) [Compound 1074282]” as the substance, how does the “YAP1 (% UTC)” value (Table 24, Yap1 mRNA as percent of untreated control, 3-10-3 cEt gapmers targeting SEQ ID NO.: 1, and 2) read?
**A.** 83 % UTC

**Q.** How did the “YAP1 (% UTC)” value [8] turn out when “1075697 (kA*kA*kT*dA*dA*dT*d[5mC]*d[5mC]*dA*dT*dG*d[5mC]*dT*kT*kG*k[5mC]; antisense) [compound 1075697]” was run?
**A.** 16 % UTC

**Q.** With “716567 (kG*kA*k[5mC]*dT*dA*dT*dA*d[5mC]*dA*dA*d[5mC]*dA*dG*kG*k[5mC]*k[5mC]; antisense) [Compound 716567]” as the substance, how does the “YAP1 (% UTC)” value [9] read?
**A.** 134 % UTC

**Q.** With “716454 (k[5mC]*kG*kA*dG*dA*dT*dT*dT*dA*dA*dA*dT*dA*kA*kG*kG; antisense) [Compound 716454]” as the substance, how does the “YAP1 (% UTC)” value (A-431 cells, 5,000 cells per well, free uptake, 2,000 nM modified oligonucleotide, approx. 48 hours, RTS4814, normalized to RIBOGREEN, Table 4, asterisk (*) = targets amplicon region of primer probe set) read?
**A.** 27 % UTC

**Q.** How did the “YAP1 (% UTC)” value [9] turn out when “716543 (antisense kT*kA*kT*dT*dT*dG*dT*dA*dG*d[5mC]*dA*dA*dA*kG*kT*k[5mC]) [Compound 716543]” was run?
**A.** 35 % UTC

**Q.** “1075856 (antisense k[5mC]*k[5mC]*kT*dA*dA*dT*d[5mC]*dA*dA*dG*dT*dT*d[5mC]*kT*kG*k[5mC]) [compound 1075856]” was tested. Which “YAP1 (% UTC)” value [10] did it give?
**A.** 40 % UTC

**Q.** Which “YAP1 (% UTC)” value [5] does the source give for “1074692 (antisense k[5mC]*k[5mC]*k[5mC]*d[5mC]*d[5mC]*d[5mC]*d[5mC]*dA*dA*dA*d[5mC]*dT*dT*kT*k[5mC]*k[5mC]) [Compound 1074692]” here?
**A.** 101 % UTC

**Q.** How did the “YAP1 (% UTC)” value [11] turn out when “1075591 (kG*kT*kA*dA*dT*dA*dA*dT*d[5mC]*dA*d[5mC]*d[5mC]*dT*kT*kA*k[5mC]; antisense) [Compound 1075591]” was run?
**A.** 76 % UTC

**Q.** “1075428 (antisense kT*kA*kT*dA*dT*dA*dA*dG*dG*d[5mC]*dA*dT*d[5mC]*kT*kT*kG) [Compound 1075428]” was tested. Which “YAP1 (% UTC)” value [5] did it give?
**A.** 53 % UTC

**Q.** How did the “YAP1 (% UTC)” value [5] turn out when “1074660 (antisense kA*kA*kT*dT*dT*d[5mC]*dA*dT*dT*dA*d[5mC]*dT*dA*k[5mC]*kT*k[5mC]) [Compound 1074660]” was run?
**A.** 48 % UTC

**Q.** For “1075122 (kG*kA*kA*dA*dA*dT*dT*dA*dG*d[5mC]*d[5mC]*dT*dA*k[5mC]*k[5mC]*kA; antisense) [compound 1075122]”, which “YAP1 (% UTC)” value [12] is on record?
**A.** 16 % UTC

**Q.** With “716546 (k[5mC]*kA*k[5mC]*dA*dA*dT*dT*dA*dA*dT*dT*dA*d[5mC]*kT*kG*kT; antisense) [Compound 716546]” as the substance, how does the “YAP1 (% UTC)” value [9] read?
**A.** 103 % UTC

**Q.** Which “YAP1 (% UTC)” value [4] does the source give for “1074187 (antisense k[5mC]*kT*kG*d[5mC]*dG*dA*dA*dG*dG*d[5mC]*dG*dG*d[5mC]*kT*kG*k[5mC]) [Compound 1074187]” here?
**A.** 47 % UTC

**Q.** For “1075282 (antisense kG*kA*kA*dA*dA*dA*dT*dG*dA*dG*d[5mC]*d[5mC]*d[5mC]*kG*kG*kT) [compound 1075282]”, which “YAP1 (% UTC)” value [12] is on record?
**A.** 103 % UTC

**Q.** How did the “YAP1 (% UTC)” value [8] turn out when “1075889 (antisense kA*kT*kT*dA*dA*dA*dA*dG*dT*dA*dG*dG*d[5mC]*k[5mC]*k[5mC]*kT) [compound 1075889]” was run?
**A.** 71 % UTC

**Q.** How did the “YAP1 (% UTC)” value [7] turn out when “716491 (k[5mC]*kT*kG*dG*dT*dG*d[5mC]*d[5mC]*dA*d[5mC]*dT*dT*dT*kA*kA*kT; antisense) [Compound 716491]” was run?
**A.** 54 % UTC

**Q.** With “1074128 (k[5mC]*kT*k[5mC]*d[5mC]*dA*d[5mC]*dT*dG*dG*dT*d[5mC]*dT*dG*kG*k[5mC]*kG; antisense) [compound 1074128]” as the substance, how does the “YAP1 (% UTC)” value [10] read?
**A.** 76 % UTC

**Q.** With “1076230 (kG*kA*kA*dT*dT*dA*dA*d[5mC]*d[5mC]*dT*d[5mC]*dA*dG*kT*kG*kA; antisense) [Compound 1076230]” as the substance, how does the “YAP1 (% UTC)” value [1] read?
**A.** 50 % UTC

**Q.** With “1075027 (antisense kA*kA*kA*dT*dT*dT*dG*dA*dA*d[5mC]*dT*dG*d[5mC]*k[5mC]*k[5mC]*kA) [compound 1075027]” as the substance, how does the “YAP1 (% UTC)” value [2] read?
**A.** 28 % UTC

**Q.** Which “YAP1 (% UTC)” value [8] does the source give for “1075313 (antisense k[5mC]*kT*kT*dA*dA*dT*dT*dG*dA*dA*d[5mC]*dT*d[5mC]*kA*kG*kG) [compound 1075313]” here?
**A.** 28 % UTC

**Q.** “1075120 (kA*kA*kT*dT*dA*dG*d[5mC]*d[5mC]*dT*dA*d[5mC]*d[5mC]*dA*k[5mC]*k[5mC]*kT; antisense) [compound 1075120]” was tested. Which “YAP1 (% UTC)” value [10] did it give?
**A.** 42 % UTC

**Q.** Which “YAP1 (% UTC)” value [11] does the source give for “1075687 (kT*kA*kA*dA*d[5mC]*dG*dA*dG*dT*dA*dA*dT*dG*kA*k[5mC]*kT; antisense) [Compound 1075687]” here?
**A.** 23 % UTC

**Q.** How did the “YAP1 (% UTC)” value [6] turn out when “1075368 (kG*kA*kG*dA*dA*dT*dA*dA*dG*d[5mC]*dA*dA*dT*k[5mC]*kA*kG; antisense) [Compound 1075368]” was run?
**A.** 24 % UTC

**Q.** “1074532 (antisense kG*kA*kA*d[5mC]*dA*d[5mC]*dT*dA*dA*dA*d[5mC]*dT*dA*k[5mC]*kT*kT) [Compound 1074532]” was tested. Which “YAP1 (% UTC)” value [5] did it give?
**A.** 59 % UTC
